The subject of experiment [1] is Rhodococcus rhodochrous ATCC #53968. As to the kind of experiment: Growth of bacteria on crude oil with inhibitors, optical density at 600 nm. The format is cell-based. The protocol:
(§1) An oil degrading microorganism was used to evaluate the use of chemical inhibitors to slow the utilization of hydrocarbons in petroleum. In a non-limiting example, three different chemical compounds that have been reported to inhibit beta-oxidation were tested in oil and culture medium on a petroleum sample with a strain of Rhodococcus rhodochrous ATCC #53968 in m9 minimal medium. To test the ability of each chemical inhibitor to slow the consumption of fatty acids a culture of bacteria was grown on a crude oil sample for a period of three days with crude petroleum oil as the only carbon source. Four separate flasks were set up, each with an oil to aqueous media ratio of 1 to 5 (10 ml of crude oil to 50 ml of culture medium). Each of the three chemical inhibitors was added to a separate flask and a fourth flask was allowed to digest without the addition of a chemical inhibitor as a control. The flasks were shaken at a room temperature of about 25° C. under aerobic conditions. The progress of the microbial digestion was monitored by the optical density at 600 nm and by visual inspection of the brown oil color in the aqueous phase. Three days after the addition of inhibitors, or a total of six days of incubation with oil, a small sample of oil (0.31 g) was removed. A second sample of the same size was remover after another 6 days. The organic acids were extracted from each oil sample with 1% NaOH in 70% ethanol. The samples were shaken vigorously for one minute. The aqueous extract material was then extracted with hexane to remove any trace of oil. The samples of extracted organic acids were then dried under vacuum and converted to methyl esters with BF3 in methanol.
Digestion with the bacteria increases the total amount of carboxylic acids in all the samples. The digestions with the chemical beta-oxidation inhibitors produce about the same or a little more total methyl ester peaks than the bacterial digestion without an inhibitor. […] The later eluting peaks increase at a faster rate with the inhibitors than without. For example, the 12 day sample with no inhibitor increase from 5.9 to 45.9 area units for peaks up to 13 minutes. The sample with the acrylic acid inhibitor has an increase of from 5.9 to 43.7 area units, which is less than without inhibitor. The later eluting peaks increase from 3.6 to 14.3 without the inhibitor, but with acrylic acid the later peak areas increase to 22.5 area units. […] After 6 days of digestion the optical density had reached 2.23 for the uninhibited digestion as compared to 0.49 for the acrylic acid inhibited sample and 1.84 for the 2-bromooctanoic acid and 2.4 for the 2-bromohexadeconoic acid. After 12 days of digestion the uninhibited sample had reached 4.0 and the acrylic acid had increased to 1.7 and 2.2 and 2.4 for the other two inhibitors. Therefore, by this experimental analysis one can determine which inhibitors increase the carboxylic acid content or the acid number of the oil fastest with the least amount of oil consumption. The oil consumption can be determined by quantitation of remaining oil or by growth of bacteria were oil is the only carbon source. It appears that all the inhibitors helped reduce the utilization of fatty acids and the consumption of oil while producing an increase in acid number.

Experiment [2] has the same test system. As to the kind of experiment: End of digestion: oil and aqueous volumes, acid number by alcoholic alkaline extraction and back titration. In kind it is cell-based. Conditions: one ml of oil, alcoholic alkaline extraction, back titration; acrylic acid value per gram of oil emulsion. The protocol: as §1, with “The samples were shaken vigorously for one minute. The aqueous extract material was then extracted with hexane to remove any trace of oil. The samples of extracted organic acids were then dried under vacuum and converted to methyl esters with BF3 in methanol.” left out
At the end of the experiment the oil and water were separated and the volume determined. […] This would have under reported the amount of methyl esters determined by GC analysis. The amount of aqueous phase was determined to be 22.5 ml for the acrylic acid sample and 46 ml, 48 ml and 47.5 ml for the others. […] The calculated acid number for the uninhibited digestion was 5 mg of KOH per gram. The other two inhibited digestions were analyzed to be 4.5 mg for the 2-bromooctanoic acid and 6.5 for the 2-bromohexadecanoic acid inhibited digestion. The undigested oil was determined to have an acid number of 6.5 mg of KOH by analysis of a one gram sample and a 10 gram sample. […]

Where [3] appears, read: after 6 days of digestion, crude oil only carbon source.

Structures are written as SMILES.

Consider `C=CC(=O)O` [AA, acrylic acid], for which the optical density in experiment [1] (setting [3]) turned out to be 0.49; in experiment [1] (after 12 days of digestion) it was 1.7. For the same molecule, the “final analysis acid number” value in experiment [2] is given as 10 mg KOH per gram.
Take `CCCCCCC(Br)C(=O)O` (stereo not drawn) [Br C8, 2-bromooctanoic acid]: the figures for the optical density in experiment [1] (setting [3]) and in experiment [1] (after 12 days of digestion) were 1.84 and 2.2, respectively. Also, in experiment [2], the “final analysis acid number” value worked out at 4.5 mg KOH per gram.

For the origin of these results see patent publication US9290688B2, “Alkaline microbial enhanced oil recovery” (GEO FOSSIL FUELS, LLC, priority 2011, dated 2016).
